From US5853731A, “Thromboxane A2 Receptor antagonism and antioxidant action of cinnamophilin and its derivatives, their pharmaceutical compositions and uses” (National Science Council, priority 1997, dated 1998)
Where two headings read alike, the source gives them in different places.

Key:
[1] = tested on: human platelet-rich plasma; experiment: Aggregation test of human platelet-rich plasma; type: cell-based; settings: for IC50: Homo sapiens, Platelet
Method: C. Platelet aggregation and ATP release reaction test
The method reported by Born (J. Physiol. 168, 178, 1963) was used to determine the platelet aggregation by a Lumi-aggregometer (Model 1020, Payton, Canada). Platelet suspension (0.4 ml) was added into a small glass tube coated with silicone, and stirred at 900 rpm with a small magnetic stirrer. Unless otherwise specified, the antagonist was added 1 minute before the inducing agent, and all the reactions were carried out at 37° C. The aggregation was calculated by following formula: […]
aggregation (% )=(light absorption before adding inducing agent-light absorption after adding inducing agent)/(light absorption before adding inducing agent-light absorption of Tyrode solution)×100%
(5 μM), Adrenaline (10 μM),

[2] = tested on: PGE2 formation; experiment: Prostaglandin E2 formation caused by arachidonic acid (AA); type: cell-based; settings: for Prostaglandin E2: caused by AA
[3] = target: T1, guinea-pig trachea (Cavia porcellus, UniProt A0A286Y4I8); experiment: Guinea-pig tracheal contraction caused by U-46619; type: cell-based; settings: for activity at 10 µM / activity at 30 µM / activity at 100 µM: guinea pig, read-out: Contraction (% of maximal contraction); for activity at 10 µM: cinnamophilin 10 μM; for activity at 30 µM: cinnamophilin 30 μM; for activity at 100 µM: cinnamophilin 100 μM
T1 construct: Tracheae from guinea-pigs were dissected out; from tissue; host or cells: guinea-pig trachea
T1 sequence (A0A286Y4I8 1-347): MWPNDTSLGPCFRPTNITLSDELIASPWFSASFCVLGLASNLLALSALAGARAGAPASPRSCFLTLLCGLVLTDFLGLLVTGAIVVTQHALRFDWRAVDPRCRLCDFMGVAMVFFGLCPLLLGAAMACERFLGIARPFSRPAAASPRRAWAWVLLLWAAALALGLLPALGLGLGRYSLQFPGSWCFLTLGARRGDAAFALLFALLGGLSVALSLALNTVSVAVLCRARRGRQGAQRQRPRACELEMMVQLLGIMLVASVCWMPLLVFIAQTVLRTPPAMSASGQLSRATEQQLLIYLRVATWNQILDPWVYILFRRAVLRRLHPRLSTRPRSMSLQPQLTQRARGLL
Method: B. Guinea-pig tracheal contraction
Tracheae from guinea-pigs were dissected out, transferred to a dish containing Krebs solution and cut transversely between the segments of cartilage. Several of these, usually about 5, were tied together so as to form a chain, which was then mounted in Krebs solution at 37° C., gassed with 95% O2 plus 5% CO2. One end of the chain was attached to a fixed pin in the bath and the other to a transducer connected to a Grass polygraph. Resting tension of each tissue was set at 1 g, Tracheae were allowed to equilibrate for at least 1 hr and washed-periodically.
Cumulative concentration-response curves were obtained by application of various concentrations of spasmogens for 15-18 min at 3 minutes intervals. Tracheal rings were pre-incubated with cinnamophilin for 15 min, then various concentrations of spasmogens were added for 15-18 min at 3 min intervals. Results were expressed as percentage of the maximal control response for each agonist.

[4] = tested on: rat thoracic aorta; experiment: Rat aortic contraction caused by norepinephrine and high potassium (KCl); type: cell-based, Wistar rat; settings: for K+ contraction (%), Tonic: K+ (80 mM); for K+ contraction (%), Tonic / norepinephrine contraction (%), Phrase (phasic) / norepinephrine contraction (%), Tonic: 15 min; for norepinephrine contraction (%), Phrase (phasic) / norepinephrine contraction (%), Tonic: norepinephrine 3 μM
Method: A. Rat Aortic Contraction
Wistar rats of either sex weighing 250 g to 300 g were killed by a blow to the head. The thoracic aorta was isolated and excess fat and connective tissue were removed. Vessels were cut into rings of about 5 mm in length and mounted in organ baths containing 5 ml Krebs solution of the following composition (mM): NaCl (118.4), KCl (4.7), CaCl (1.9), MgSO4 (1.2), KH2 PO4 (1.2), NaHCO3 (25.0) and glucose (11.7). The tissue bath solution was maintained at 37° C. and gassed with 95% O2 :5% CO2 mixture. Two stainless steel hooks were inserted into the aortic lumen, one was fixed while the other was connected to a transducer. Aortae were equilibrated in the medium for 90 min with three changes of Krebs solution and maintained under an optimal tension of 1 g before specific experimental protocols were initiated.
Contraction was recorded isometrically via a force-displacement transducer connected to a Grass polygraph. Aortae were allowed to preincubate for 15 minutes with cinnamophilin before generating the cumulative concentration-response curve with each agonist for 15-30 min at 3 min intervals. Results are expressed as a percentage of the maximal control response for each agonist.
Rat aorta ring were preincubated with lignans or DMSO (0.1% control) at
37° C. for 15 min, then the inducer was added.

IC50 ([1]; human platelet-rich plasma, inducer A-23187 5 μM, read-out: IC50, platelet aggregation): > 30 µM
IC50 ([1]; human platelet-rich plasma, inducer ADP 5 μM, First Phrase, read-out: IC50, platelet aggregation, first phase): > 30 µM
IC50 ([1]; human platelet-rich plasma, inducer ADP 5 μM, Second Phrase, read-out: IC50, platelet aggregation, second phase): 6 ± 0.6 µM
IC50 ([1]; human platelet-rich plasma, inducer U-46619 1 μM, read-out: IC50, platelet aggregation): 3 ± 0.4 µM
IC50 ([1]; human platelet-rich plasma, inducer adrenaline 10 μM, First Phrase, read-out: IC50, platelet aggregation, first phase): > 30 µM
IC50 ([1]; human platelet-rich plasma, inducer adrenaline 10 μM, Second Phrase, read-out: IC50, platelet aggregation, second phase): 7.6 ± 0.9 µM
IC50 ([1]; human platelet-rich plasma, inducer arachidonic acid (AA) 800 μM, read-out: IC50, platelet aggregation): 5 ± 0.4 µM
IC50 ([1]; human platelet-rich plasma, inducer collagen, read-out: IC50, platelet aggregation): 5.6 ± 0.6 µM
Kb ([3]; against U-46619, read-out: pA2, guinea-pig tracheal contraction induced by U-46619 (converted)): 6.31 µM
activity at 10 µM ([3]; U-46619 0.01 μM): 5.7 ± 2%
activity at 10 µM ([3]; U-46619 0.02 μM): 17.1 ± 4.5%
activity at 10 µM ([3]; U-46619 0.05 μM): 35 ± 5%
activity at 10 µM ([3]; U-46619 0.1 μM): 52 ± 5%
activity at 10 µM ([3]; U-46619 0.2 μM): 70 ± 6%
activity at 10 µM ([3]; U-46619 0.5 μM): 79 ± 4%
activity at 10 µM ([3]; U-46619 1 μM): 85 ± 5%
activity at 10 µM ([3]; U-46619 2 μM): 90 ± 4%
activity at 10 µM ([3]; U-46619 5 μM): 94 ± 4%
activity at 30 µM ([3]; U-46619 0.02 μM): 3%
activity at 30 µM ([3]; U-46619 0.05 μM): 11 ± 3%
activity at 30 µM ([3]; U-46619 0.1 μM): 22 ± 4%
activity at 30 µM ([3]; U-46619 0.2 μM): 35 ± 4%
activity at 30 µM ([3]; U-46619 0.5 μM): 52 ± 5%
activity at 30 µM ([3]; U-46619 1 μM): 67 ± 4%
activity at 30 µM ([3]; U-46619 2 μM): 80 ± 4.5%
activity at 30 µM ([3]; U-46619 5 μM): 88 ± 5%
activity at 30 µM ([3]; U-46619 10 μM): 92 ± 5%
activity at 100 µM ([3]; U-46619 0.05 μM): 0%
activity at 100 µM ([3]; U-46619 0.1 μM): 5 ± 3%
activity at 100 µM ([3]; U-46619 0.2 μM): 15 ± 3%
activity at 100 µM ([3]; U-46619 0.5 μM): 27 ± 4.5%
activity at 100 µM ([3]; U-46619 1 μM): 41 ± 4%
activity at 100 µM ([3]; U-46619 2 μM): 55 ± 5.7%
activity at 100 µM ([3]; U-46619 5 μM): 68 ± 5.7%
activity at 100 µM ([3]; U-46619 10 μM): 78 ± 3%
SMILES: COc1cc(CC(C)C(C)C(=O)c2ccc(O)c(OC)c2)ccc1O (centres unmarked) [Compound 1, cinnamophilin]
inhibition of U-46619 induced platelet aggregation ([1]; U-46619): potential inhibition
inhibition of second phase aggregation ([1]; human platelet-rich plasma, ADP and adrenaline): inhibit second phase aggregation
inhibition of platelet aggregation ([1]; induced by AA, ADP, collagen, U-46619, A-23187): potentially to inhibit the platelet aggregation
PGE2 level ([2]; 0.03-10 μM, AA): increase PGE2 and cAMP levels
Prostaglandin E2 ([2]; conc 0.01 μM): 40 ± 10 ng/mL
Prostaglandin E2 ([2]; conc 0.03 μM): 75 ± 15 ng/mL
Prostaglandin E2 ([2]; conc 0.1 μM): 115 ± 15 ng/mL
Prostaglandin E2 ([2]; conc 0.3 μM): 155 ± 29 ng/mL
Prostaglandin E2 ([2]; conc 1 μM): 205 ± 19 ng/mL
Prostaglandin E2 ([2]; conc 3 μM): 245 ± 20 ng/mL
Prostaglandin E2 ([2]; conc 10 μM): 2665 ± 21 ng/mL
K+ contraction (%), Tonic ([4]; conc 1 μM): 60.2 ± 1.5%
K+ contraction (%), Tonic ([4]; conc 3 μM): 36.6 ± 4.7%
K+ contraction (%), Tonic ([4]; conc 10 μM): 5.2 ± 2.3%
K+ contraction (%), Tonic ([4]; conc 50 μM): 4.5 ± 3.2%
phasic contractions ([4]; noradrenaline and high potassium (80 mM)): inhibited the phasic contractions
norepinephrine contraction (%), Phrase (phasic) ([4]; conc 3 μM): 121.8 ± 7.2%
norepinephrine contraction (%), Phrase (phasic) ([4]; conc 5 μM): 100.4 ± 9.7%
norepinephrine contraction (%), Phrase (phasic) ([4]; conc 10 μM): 69.3 ± 4.0%
norepinephrine contraction (%), Phrase (phasic) ([4]; conc 50 μM): 65.9 ± 11.3%
norepinephrine contraction (%), Tonic ([4]; conc 3 μM): 90.1 ± 5.5%
norepinephrine contraction (%), Tonic ([4]; conc 5 μM): 77.1 ± 5.7%
norepinephrine contraction (%), Tonic ([4]; conc 10 μM): 27.9 ± 0.5%
norepinephrine contraction (%), Tonic ([4]; conc 50 μM): 14.6 ± 1.5%
